From US10081624B2, “Heterocyclic compound” (Takeda Pharmaceutical Company Limited, priority 2014, dated 2018) come the findings set out here.

The target of one assay is T1, HDAC1 enzyme (Homo sapiens, UniProt Q13547).
T1 construct: prepared by transducing full length HDAC1 and HDAC6 genes into Sf-9 insect cells; GST; purchased SignalChem; host or cells: Sf-9 insect cells
Description: HDAC1 enzyme inhibitory assay (HDAC-Glo I/II Assay kit). It counts as biochemical. Conditions: 1 μM test compound; read-out: HDAC1 inhibitory rate (%) (1 μM). Summed up:
(§1)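 Luminescent HDAC-Glo I/II read-out after 20 min room-temperature reaction with substrate-developer, following a 60 min room-temperature enzyme–compound preincubation. Enzymes: full-length HDAC1 or HDAC6 from Sf-9 cells, GST-purified; buffer pH 7.5 Tris with NaCl, glutathione, 0.01% Tween-20. No-enzyme wells defined 100% inhibition.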

In the next assay the target is T2, HDAC6 enzyme (Homo sapiens, UniProt Q9UBN7).
T2 construct: prepared by transducing full length HDAC1 and HDAC6 genes into Sf-9 insect cells; GST; purchased SignalChem; host or cells: Sf-9 insect cells
T2 sequence (Q9UBN7 1-1215): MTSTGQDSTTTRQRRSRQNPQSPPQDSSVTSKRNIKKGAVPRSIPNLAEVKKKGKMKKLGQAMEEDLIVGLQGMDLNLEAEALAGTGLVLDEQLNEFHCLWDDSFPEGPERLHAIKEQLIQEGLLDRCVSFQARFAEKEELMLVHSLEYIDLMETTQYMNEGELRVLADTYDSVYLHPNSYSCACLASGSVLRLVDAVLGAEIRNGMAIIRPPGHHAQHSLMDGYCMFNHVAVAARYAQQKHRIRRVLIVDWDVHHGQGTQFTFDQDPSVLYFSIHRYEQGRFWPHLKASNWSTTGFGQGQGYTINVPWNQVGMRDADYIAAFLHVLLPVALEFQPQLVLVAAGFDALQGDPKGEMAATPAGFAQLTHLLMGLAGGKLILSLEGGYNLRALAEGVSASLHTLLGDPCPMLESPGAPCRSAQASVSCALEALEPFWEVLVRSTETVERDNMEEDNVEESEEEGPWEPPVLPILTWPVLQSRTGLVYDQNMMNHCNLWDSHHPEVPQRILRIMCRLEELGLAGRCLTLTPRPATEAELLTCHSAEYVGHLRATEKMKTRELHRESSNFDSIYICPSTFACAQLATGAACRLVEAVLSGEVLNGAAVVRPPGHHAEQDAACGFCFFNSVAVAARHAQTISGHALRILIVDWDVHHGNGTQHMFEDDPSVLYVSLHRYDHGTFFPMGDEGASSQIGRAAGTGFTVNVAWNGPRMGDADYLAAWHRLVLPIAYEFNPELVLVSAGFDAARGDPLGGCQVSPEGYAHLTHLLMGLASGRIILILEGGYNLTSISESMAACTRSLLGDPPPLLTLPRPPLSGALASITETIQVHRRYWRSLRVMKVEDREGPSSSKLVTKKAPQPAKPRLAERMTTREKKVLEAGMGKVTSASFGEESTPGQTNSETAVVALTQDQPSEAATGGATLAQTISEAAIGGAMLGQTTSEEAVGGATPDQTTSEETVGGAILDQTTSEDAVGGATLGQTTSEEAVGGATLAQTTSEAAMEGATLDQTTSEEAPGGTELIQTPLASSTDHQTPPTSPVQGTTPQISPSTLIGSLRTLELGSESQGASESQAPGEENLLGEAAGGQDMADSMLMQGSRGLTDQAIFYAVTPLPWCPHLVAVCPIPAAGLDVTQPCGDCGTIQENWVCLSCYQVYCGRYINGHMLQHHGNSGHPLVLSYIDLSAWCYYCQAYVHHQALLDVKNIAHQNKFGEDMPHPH
Kind of assay: HDAC6 enzyme inhibitory assay (HDAC-Glo I/II Assay kit). It counts as biochemical. The note with it: 1 μM test compound; read-out: HDAC6 inhibitory rate (%) (1 μM). Summed up: as §1

T1 sequence (Q13547 whole entry): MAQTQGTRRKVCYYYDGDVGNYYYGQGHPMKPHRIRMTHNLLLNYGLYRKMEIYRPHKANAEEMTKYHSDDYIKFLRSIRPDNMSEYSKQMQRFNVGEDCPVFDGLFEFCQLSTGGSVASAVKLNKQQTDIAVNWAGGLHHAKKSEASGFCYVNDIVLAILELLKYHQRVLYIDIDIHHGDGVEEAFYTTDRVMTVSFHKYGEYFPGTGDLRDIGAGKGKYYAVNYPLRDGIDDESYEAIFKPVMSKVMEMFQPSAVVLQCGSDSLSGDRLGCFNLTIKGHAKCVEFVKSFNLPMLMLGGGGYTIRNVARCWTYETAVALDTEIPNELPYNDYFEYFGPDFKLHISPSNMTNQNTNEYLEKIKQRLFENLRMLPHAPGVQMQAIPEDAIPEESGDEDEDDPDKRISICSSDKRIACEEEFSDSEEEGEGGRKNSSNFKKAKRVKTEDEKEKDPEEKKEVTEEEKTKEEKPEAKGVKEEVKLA

Turning to `O=C(NC[C@H]1COCCN1C(=O)C(F)(F)c1ccccc1)c1ccc(-c2noc(C(F)(F)F)n2)s1` [Example 261, N-(((3S)-4-(difluoro(phenyl)acetyl)morpholin-3-yl)methyl)-5-(5-(trifluoromethyl)-1,2,4-oxadiazol-3-yl)thiophene-2-carboxamide], the inhibition at 1 µM turned out to be 53% at HDAC1 enzyme and 101% on HDAC6 enzyme.

As to `O=C(NC[C@H]1COCCN1C(=O)c1cccc(-c2ccccc2)c1)c1ccc(-c2noc(C(F)(F)F)n2)s1` [Example 262, N-(((3S)-4-(biphenyl-3-ylcarbonyl)morpholin-3-yl)methyl)-5-(5-(trifluoromethyl)-1,2,4-oxadiazol-3-yl)thiophene-2-carboxamide], the inhibition at 1 µM on HDAC1 enzyme came to 16%; at HDAC6 enzyme, 94%.

For the compound `CC(C)(C(=O)N1CCOC[C@@H]1CNC(=O)c1ccc(-c2noc(C(F)(F)F)n2)s1)c1ccccc1` [Example 263, N-(((3S)-4-(2-methyl-2-phenylpropanoyl)morpholin-3-yl)methyl)-5-(5-(trifluoromethyl)-1,2,4-oxadiazol-3-yl)thiophene-2-carboxamide], the values for the inhibition at 1 µM on HDAC1 enzyme and at HDAC6 enzyme were 32% and 99%, respectively.

Regarding `Cc1nonc1C(=O)N1CCOC[C@H]1CNC(=O)c1ccc(-c2noc(C(F)(F)F)n2)s1` [Example 264, N-(((3R)-4-((4-methyl-1,2,5-oxadiazol-3-yl)carbonyl)morpholin-3-yl)methyl)-5-(5-(trifluoromethyl)-1,2,4-oxadiazol-3-yl)thiophene-2-carboxamide], the inhibition at 1 µM at HDAC1 enzyme worked out at 48%; on HDAC6 enzyme, 99%.

Take `O=C(NC[C@@H]1COCCN1C(=O)C(F)(F)c1ccccc1)c1ccc(-c2noc(C(F)(F)F)n2)s1` [Example 265, N-(((3R)-4-(difluoro(phenyl)acetyl)morpholin-3-yl)methyl)-5-(5-(trifluoromethyl)-1,2,4-oxadiazol-3-yl)thiophene-2-carboxamide]: the inhibition at 1 µM at HDAC1 enzyme worked out at 76%; on HDAC6 enzyme, 99%.

For `O=C(NC[C@@H]1COCCN1C(=O)C1CCCCC1)c1ccc(-c2noc(C(F)(F)F)n2)s1` [Example 266, N-(((3R)-4-(cyclohexylcarbonyl)morpholin-3-yl)methyl)-5-(5-(trifluoromethyl)-1,2,4-oxadiazol-3-yl)thiophene-2-carboxamide], the results for the inhibition at 1 µM on HDAC1 enzyme and on HDAC6 enzyme were 30% and 98%, respectively.

For the compound `COC(=O)c1cccc(C(=O)N2CCOC[C@@H]2CNC(=O)c2ccc(-c3noc(C(F)(F)F)n3)cc2)c1` [Example 268, methyl 3-(((3S)-3-(((4-(5-(trifluoromethyl)-1,2,4-oxadiazol-3-yl)benzoyl)amino)methyl)morpholin-4-yl)carbonyl)benzoate], the inhibition at 1 µM was found to be 15% at HDAC1 enzyme and 96% on HDAC6 enzyme.

Take `O=C(O)c1cccc(C(=O)N2CCOC[C@@H]2CNC(=O)c2ccc(-c3noc(C(F)(F)F)n3)cc2)c1` [Example 269, 3-(((3S)-3-(((4-(5-(trifluoromethyl)-1,2,4-oxadiazol-3-yl)benzoyl)amino)methyl)morpholin-4-yl)carbonyl)benzoic acid]: the figures for the inhibition at 1 µM at HDAC1 enzyme and on HDAC6 enzyme were 7% and 89%, respectively.

Take `CN1CCC[C@H]1C(=O)N1CCOC[C@@H]1CNC(=O)c1ccc(-c2noc(C(F)(F)F)n2)cc1` [Example 270, N-(((3S)-4-(1-methyl-L-prolyl)morpholin-3-yl)methyl)-4-(5-(trifluoromethyl)-1,2,4-oxadiazol-3-yl)benzamide]: the inhibition at 1 µM is -1% at HDAC1 enzyme and 59% at HDAC6 enzyme.

For `O=C(NCCO)c1cccc(C(=O)N2CCOC[C@@H]2CNC(=O)c2ccc(-c3noc(C(F)(F)F)n3)cc2)c1` [Example 271, N-(2-hydroxyethyl)-3-(((3S)-3-(((4-(5-(trifluoromethyl)-1,2,4-oxadiazol-3-yl)benzoyl)amino)methyl)morpholin-4-yl)carbonyl)benzamide], the results for the inhibition at 1 µM at HDAC1 enzyme and at HDAC6 enzyme were 7% and 94%, respectively.

`COC[C@H]1CCCN1C(=O)N1CCOC[C@@H]1CNC(=O)c1ccc(-c2noc(C(F)(F)F)n2)cc1` [Example 272, N-(((3S)-4-(((2R)-2-(methoxymethyl)pyrrolidin-1-yl)carbonyl)morpholin-3-yl)methyl)-4-(5-(trifluoromethyl)-1,2,4-oxadiazol-3-yl)benzamide]: the inhibition at 1 µM at HDAC1 enzyme stood at 5%; at HDAC6 enzyme it was 99%.

Take `COC[C@@H]1CCCN1C(=O)N1CCOC[C@@H]1CNC(=O)c1ccc(-c2noc(C(F)(F)F)n2)cc1` [Example 273, N-(((3S)-4-(((2S)-2-(methoxymethyl)pyrrolidin-1-yl)carbonyl)morpholin-3-yl)methyl)-4-(5-(trifluoromethyl)-1,2,4-oxadiazol-3-yl)benzamide]: the inhibition at 1 µM on HDAC1 enzyme worked out at 3%; on HDAC6 enzyme, 87%.

Turning to `O=C(NC[C@H]1COCCN1C(=O)N1CC[C@H](O)C1)c1ccc(-c2noc(C(F)(F)F)n2)cc1` [Example 274, N-(((3S)-4-(((3S)-3-hydroxypyrrolidin-1-yl)carbonyl)morpholin-3-yl)methyl)-4-(5-(trifluoromethyl)-1,2,4-oxadiazol-3-yl)benzamide], the inhibition at 1 µM on HDAC1 enzyme stood at 3%; at HDAC6 enzyme, 94%.

As to `O=C(NC[C@H]1COCCN1C(=O)N1CC[C@@H](O)C1)c1ccc(-c2noc(C(F)(F)F)n2)cc1` [Example 275, N-(((3S)-4-(((3R)-3-hydroxypyrrolidin-1-yl)carbonyl)morpholin-3-yl)methyl)-4-(5-(trifluoromethyl)-1,2,4-oxadiazol-3-yl)benzamide], the inhibition at 1 µM at HDAC1 enzyme turned out to be 5%; at HDAC6 enzyme, 85%.

Turning to `O=C(NC[C@H]1COCCN1C(=O)N1CCCC(CO)C1)c1ccc(-c2noc(C(F)(F)F)n2)cc1` (stereo partly drawn) [Example 276, N-(((3S)-4-((3-(hydroxymethyl)piperidin-1-yl)carbonyl)morpholin-3-yl)methyl)-4-(5-(trifluoromethyl)-1,2,4-oxadiazol-3-yl)benzamide], the results for the inhibition at 1 µM at HDAC1 enzyme and on HDAC6 enzyme were 9% and 89%, respectively.

With `O=C(NC[C@H]1COCCN1C(=O)N1CCC(F)(F)CC1)c1ccc(-c2noc(C(F)(F)F)n2)cc1` [Example 277, N-(((3S)-4-((4,4-difluoropiperidin-1-yl)carbonyl)morpholin-3-yl)methyl)-4-(5-(trifluoromethyl)-1,2,4-oxadiazol-3-yl)benzamide], the inhibition at 1 µM came out at 8% on HDAC1 enzyme and 101% at HDAC6 enzyme.

Take `O=C(NC[C@H]1COCCN1C(=O)N1CCC(CO)CC1)c1ccc(-c2noc(C(F)(F)F)n2)cc1` [Example 278, N-(((3S)-4-((4-(hydroxymethyl)piperidin-1-yl)carbonyl)morpholin-3-yl)methyl)-4-(5-(trifluoromethyl)-1,2,4-oxadiazol-3-yl)benzamide]: the inhibition at 1 µM amounted to 6% at HDAC1 enzyme and 90% on HDAC6 enzyme.

Consider `O=C(NC[C@H]1COCCN1C(=O)N1CCC(CCO)CC1)c1ccc(-c2noc(C(F)(F)F)n2)cc1` [Example 279, N-(((3S)-4-((4-(2-hydroxyethyl)piperidin-1-yl)carbonyl)morpholin-3-yl)methyl)-4-(5-(trifluoromethyl)-1,2,4-oxadiazol-3-yl)benzamide], for which the inhibition at 1 µM on HDAC1 enzyme came out at 10%; at HDAC6 enzyme it was 90%.

In the case of `O=C(NC[C@H]1COCCN1C(=O)N1CCCC2(COC2)C1)c1ccc(-c2noc(C(F)(F)F)n2)cc1` [Example 281, N-(((3S)-4-(2-oxa-6-azaspiro[3.5]non-6-ylcarbonyl)morpholin-3-yl)methyl)-4-(5-(trifluoromethyl)-1,2,4-oxadiazol-3-yl)benzamide], the inhibition at 1 µM on HDAC1 enzyme turned out to be 7%; on HDAC6 enzyme, 93%.
